Patent US20220313707A1 (priority 2021, published 2022)

Tested on: influenza A Hp1N1 virus
Design: species or system mice
Conditions: mouse, in vivo

CC1(C)C(=O)N(c2ccc(C#N)c(C(F)(F)F)c2)C(=S)N1c1ccc(OC[C@@H](O)CO)cc1 [SHR-3680]
14 d survival rate: 50% | Mean days of survival: 11.3 ± 2.87 days | Survival number (pcs.): 5 pcs. | Survival rate (%): 50%

CC1(C)C(=O)N(c2ccc(C#N)c(C(F)(F)F)c2F)C(=S)N1c1ccc(CCCc2ncco2)nc1 [Proxalutamide]
14 d survival rate: 40% | Mean days of survival: 11.0 ± 2.83 days | Survival number (pcs.): 4 pcs. | Survival rate (%): 40%
